The values that follow come from patent US20090176794A1, “1H-INDOL-1-YL-UREA COMPOUNDS” (LES LABORATOIRES SERVIER, priority 2008, published 2009).

Data set [1] deals with tyrosine hydroxylase (TH) protein in the locus coeruleus (LC). Briefly: Induction of tyrosine hydroxylase in the locus coeruleus after i.p. injection. Type of data set: in vivo. Particulars: i.p. 20 mg/kg, three days after single injection, Balb/C mouse; for amount of TH in LC section 1, relative to the mean value of the control group: LC section 1 (anterior-to-posterior). The source says:
A search is made among the compounds for those which are capable of bringing about an increase in the tyrosine hydroxylase (TH) protein in the locus coeruleus (LC) of the brain of the Balb/C mouse.
The animals used are male mice of the pure Balb/C strain (Charles River Laboratories) aged from 7 to 8 weeks at the time of treatment.
The mice are given a single injection, by the intraperitoneal route, of the compound under test, dissolved in 0.04M HCl solution (corresponding control: […]), if the compound is sufficiently soluble, or in olive oil 90%/DMSO 10% (corresponding control: olive oil 90%/DMSO 10%) for compounds that are insoluble in an aqueous medium.
Three days after the injection of each compound, all the animals are sacrificed by decapitation. The brains are removed and then frozen in liquid nitrogen and stored at −80° C.
Coronal sections 8 microns thick are taken along the posterior-anterior axis of the LC and fixed. The sections are transferred onto Immobilon-P membranes. The TH is measured by immunodetection and image analysis.

A short description of data set [2]: Predicted metabolic stability, human hepatic microsomes. Type of data set: in vitro ADME. Particulars: human hepatic microsomes 0.33 mg prot/ml; compound 10^-7 M; NADPH; 0-60 min. As for the experimental part:
(§1) The predicted metabolic stability is tested by incubation of the compounds at a concentration of 10^−7M in the presence of mouse, rat or human hepatic microsomes (0.33 mg of prot/ml). After addition of NADPH (nicotinamide adenine dinucleotide phosphate, reduced form), samples are taken at 0, 5, 15, 30 and 60 minutes. The enzymatic reaction is stopped using methanol (V/V). The protein is precipitated by centrifugation and the supernatant is analysed by LC-MS-MS.

Data set [3] in a line: Predicted metabolic stability, mouse hepatic microsomes. In kind it is in vitro ADME. Particulars: mouse hepatic microsomes 0.33 mg prot/ml; compound 10^-7 M; NADPH; 0-60 min. Here is the method: as §1
A short description of data set [4]: Predicted metabolic stability, rat hepatic microsomes. Particulars: rat hepatic microsomes 0.33 mg prot/ml; compound 10^-7 M; NADPH; 0-60 min. Type of data set: in vitro ADME. Here is the method: as §1
The subject of data set [5] is confluent endothelial cells from bovine capillaries. Briefly: Predicted crossing of the blood-brain barrier (BBB). Set-up: key: high; intermediate; low. Particulars: 20 μM in upper compartment; filter with bovine capillary endothelial cells; 10-60 min. Type of data set: in vitro ADME. Here is the method:
The substances are incubated at 20 μM in the upper compartment of a double container, the upper compartment being separated from the lower compartment either solely by a polycarbonate filter or by the same filter covered with confluent endothelial cells from bovine capillaries. Evaluation of the permeability kinetics is carried out by means of LC-MS-MS quantification of the unchanged substance in the lower compartment after 10, 20, 30, 40 and 60 minutes.

The target in data set [6] is T1, ERK2 (Homo sapiens, UniProt P28482). Briefly: Biacore direct interaction with recombinant ERK2. Type of data set: binding. The text has this:
(§2) Various forms of non-phosphorylated recombinant ERK (ERK1 and ERK2) and of phosphorylated recombinant ERK (p-ERK1 and p-ERK2) are fixed separately on “chips” and studied in the Biacore® system. The direct interaction of the compound of Example 1 at different concentrations is studied. • 2. Results
Background: SPR reads the build-up and loss of mass on a sensor chip optically.

Data set [7] addresses T2, ERK1 (Homo sapiens, UniProt P27361). Briefly: ERK1 phosphorylation ex vivo in pig brain tissues. In kind it is biochemical. Particulars: 3×10^-9 M. Set-up: host or cells: recombinant protein added to pig brain tissue preparations. The source says: (§3) The various brain structures are isolated, treated and suspended in a medium without phosphate, after inactivation of the phosphatases of the tissues. The tissues are cleared of their own ERK and p-ERK and placed in the presence of specific recombinant forms of ERK1, ERK2, p-ERK1 and p-ERK2.
(§4) The phosphorylation capacities are studied in the presence and absence of the compound of Example 1 by means of antibodies that allow evaluation of non-phosphorylated and phosphorylated ERK1 and ERK2. • 2. Results

In data set [8] the target is T2, ERK1. Put plainly: Biacore direct interaction with recombinant ERK1. In kind it is binding.
From the text: as §2

Data set [9] concerns the target T1, ERK2. Briefly: ERK2 phosphorylation ex vivo in pig brain tissues. Type of data set: biochemical. Set-up: host or cells: recombinant protein added to pig brain tissue preparations. Particulars: 3×10^-9 M.
From the text: as §3, §4

Where [10] appears, read: pig brain prefrontal cortex ex vivo.

T2 sequence (P27361 whole entry, species assumed): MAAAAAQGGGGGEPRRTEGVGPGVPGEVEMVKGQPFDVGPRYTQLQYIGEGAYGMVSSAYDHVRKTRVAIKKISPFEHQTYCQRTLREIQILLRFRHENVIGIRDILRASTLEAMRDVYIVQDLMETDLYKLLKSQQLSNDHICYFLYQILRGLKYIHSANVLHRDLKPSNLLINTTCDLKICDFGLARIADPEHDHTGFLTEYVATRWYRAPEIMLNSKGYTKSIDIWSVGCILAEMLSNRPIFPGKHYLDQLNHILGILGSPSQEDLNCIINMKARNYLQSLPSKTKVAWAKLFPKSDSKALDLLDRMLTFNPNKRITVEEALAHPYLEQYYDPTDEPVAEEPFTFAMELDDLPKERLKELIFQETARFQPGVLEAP
T1 sequence (P28482 whole entry, species assumed): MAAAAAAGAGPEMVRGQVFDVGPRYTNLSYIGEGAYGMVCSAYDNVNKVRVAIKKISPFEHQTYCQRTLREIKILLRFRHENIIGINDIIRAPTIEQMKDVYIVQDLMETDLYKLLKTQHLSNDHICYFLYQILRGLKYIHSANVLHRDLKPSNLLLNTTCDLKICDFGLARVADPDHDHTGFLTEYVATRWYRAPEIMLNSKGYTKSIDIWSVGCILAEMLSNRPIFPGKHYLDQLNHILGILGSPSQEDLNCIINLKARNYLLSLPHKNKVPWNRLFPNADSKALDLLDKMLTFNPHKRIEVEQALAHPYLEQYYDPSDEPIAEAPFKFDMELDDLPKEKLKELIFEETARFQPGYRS

Take `O=C(NCc1ccccn1)Nn1ccc2ccccc21` [Example 24, N-(1H-indol-1-yl)-N′-(2-pyridylmethyl)urea]: in data set [1], the “amount of TH in LC section 1, relative to the mean value of the control group” value is on record as 74%; the “amount of TH in LC section 2, relative to the mean value of the control group” value is on record as 78%; the “amount of TH in LC section 3, relative to the mean value of the control group” value was 68%; the “amount of TH in LC section 4, relative to the mean value of the control group” value amounted to 45%. Also, in data set [1], the “amount of TH in LC section 5, relative to the mean value of the control group” value is 29%; the “amount of TH in LC section 6, relative to the mean value of the control group” value was 19%; the “amount of TH in LC section 7, relative to the mean value of the control group” value is 5%; the “amount of TH in LC section 8, relative to the mean value of the control group” value is 7%. Moreover, the “% metabolic stability predicted using hepatic microsomes, Human” value (“% metabolic stability predicted … Human” for short) in data set [2] was 67%. Besides, the “% metabolic stability predicted using hepatic microsomes, Mouse” value (from here on “% metabolic stability predicted … Mouse”) in [3] is listed as 72%. The “% metabolic stability predicted using hepatic microsomes, Rat” value (from here on “% metabolic stability predicted … Rat”) in [4] is given as 69%.
For `O=C(Nc1ccncc1)Nn1ccc2ccccc21` [Example 6, N-(1H-indol-1-yl)-N′-(4-pyridyl)urea], in data set [1], the “amount of TH in LC section 1, relative to the mean value of the control group” value came out at 65%; the “amount of TH in LC section 2, relative to the mean value of the control group” value is on record as 81%; the “amount of TH in LC section 3, relative to the mean value of the control group” value is 59%; the “amount of TH in LC section 4, relative to the mean value of the control group” value turned out to be 33%. In [1], the “amount of TH in LC section 5, relative to the mean value of the control group” value was 20%; the “amount of TH in LC section 6, relative to the mean value of the control group” value was 13%; the “amount of TH in LC section 7, relative to the mean value of the control group” value came out at 8%; the “amount of TH in LC section 8, relative to the mean value of the control group” value was 2%. The “% metabolic stability predicted … Human” value in [2] was 77%. In addition, the “% metabolic stability predicted … Mouse” value in data set [3] is listed as 77%. In addition, in data set [4], the “% metabolic stability predicted … Rat” value was 73%.
As to `O=C(Nc1cccnc1)Nn1ccc2ccccc21` [Example 1, N-(1H-indol-1-yl)-N′-(3-pyridyl)urea], in data set [1], the “amount of TH in LC section 1, relative to the mean value of the control group” value is recorded as 66%; the “amount of TH in LC section 2, relative to the mean value of the control group” value is 85%; the “amount of TH in LC section 3, relative to the mean value of the control group” value was 74%; the “amount of TH in LC section 4, relative to the mean value of the control group” value worked out at 64%. Further, in data set [1], the “amount of TH in LC section 5, relative to the mean value of the control group” value is 45%; the “amount of TH in LC section 6, relative to the mean value of the control group” value was determined as 40%; the “amount of TH in LC section 7, relative to the mean value of the control group” value is listed as 8%; the “amount of TH in LC section 8, relative to the mean value of the control group” value is given as 2%. Moreover, the “degree of crossing of the BBB (category)” value in data set [5] is recorded as “high”. Moreover, in data set [2], the “% metabolic stability predicted … Human” value is 72%. For the same compound, in data set [3], the “% metabolic stability predicted … Mouse” value is on record as 78%. The “binding to ERK2” value on ERK2 [6] (non-phosphorylated recombinant ERK2 on chip, different concentrations) is “binds strongly”. The “binding to ERK2 when the corresponding phosphorylated ERK is added to the medium” value on ERK2 [6] (p-ERK2 added to the medium) is given as “inhibited”. In addition, the “phosphorylation of ERK1 in the hippocampus” value at ERK1 [7] (pig brain hippocampus ex vivo) is “increases”. The “phosphorylation of ERK1 in the prefrontal cortex” value at ERK1 [7] (setting [10]) is on record as “increases”. Besides, in data set [4], the “% metabolic stability predicted … Rat” value was 78%. Further, on ERK1 [8] (non-phosphorylated recombinant ERK1 on chip, different concentrations), the “binding to ERK1” value was “binds strongly”. On ERK1 [8] (p-ERK1 added to the medium), the “binding to ERK1 when the corresponding phosphorylated ERK is added to the medium” value is recorded as “inhibited”. Further, the “phosphorylation of ERK2 in the hippocampus” value at ERK2 [9] (pig brain hippocampus ex vivo) was “increases”. In addition, the “phosphorylation of ERK2 in the prefrontal cortex” value on ERK2 [9] (setting [10]) is “increases”. Also, on ERK2 [9] (pig brain striatum ex vivo), the “phosphorylation of ERK2 in the striatum” value was “increases”.
As for `O=C(Nc1ccncc1)Nn1ccc2cc(Cl)ccc21` [Example 13, N-(5-chloro-1H-indol-1-yl)-N′-(4-pyridyl)urea], the “% metabolic stability predicted … Human” value in [2] is listed as 82%. Also, the “% metabolic stability predicted … Mouse” value in data set [3] was 84%. Also, the “% metabolic stability predicted … Rat” value in [4] is given as 89%.
Consider `O=C(Nc1cccnc1)NN1CCc2ccccc21` [Example 2, N-(2,3-dihydro-1H-indol-1-yl)-N′-(3-pyridyl)urea], for which, in data set [1], the “amount of TH in LC section 1, relative to the mean value of the control group” value was determined as 63%; the “amount of TH in LC section 2, relative to the mean value of the control group” value is recorded as 77%; the “amount of TH in LC section 3, relative to the mean value of the control group” value turned out to be 64%; the “amount of TH in LC section 4, relative to the mean value of the control group” value was determined as 57%. In data set [1], the “amount of TH in LC section 5, relative to the mean value of the control group” value is 34%; the “amount of TH in LC section 6, relative to the mean value of the control group” value was determined as 15%; the “amount of TH in LC section 7, relative to the mean value of the control group” value was 8%; the “amount of TH in LC section 8, relative to the mean value of the control group” value was found to be 2%. Moreover, the “% metabolic stability predicted … Human” value in [2] is recorded as 98%. Also, in data set [3], the “% metabolic stability predicted … Mouse” value is 85%. Also, the “% metabolic stability predicted … Rat” value in data set [4] is recorded as 55%.
